Measured values from patent publication US11291655B2, “RAD51 inhibitors” (Cyteir Therapeutics, Inc., priority 2017, dated 2022).

Test system: Daudi Cell Culture
Experiment: Compound primary screening in Daudi cell culture
Type: cell-based
Conditions: Homo sapiens, 168 h; Daudi cells, 1250 cells per well, reads on Day 7
How it was run: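 Daudi cells seeded at 1250 cells per well in 130 ul medium at 37° C. and treated with serially diluted compounds added from a media master plate; read on Day 7.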

## CC(C)NC(=S)Nc1ccc(-c2ncc(-c3ccc(NC(=O)NCc4ccccc4)cc3S(=O)(=O)NC(C)(C)C)s2)cc1 [Compound L10]
  EC50: < 5 µM

## CC(C)NC(=S)Nc1ccc(-c2ncc(-c3ccc(NC(=O)N(C)Cc4ccccc4)cc3S(=O)(=O)NC(C)(C)C)s2)cc1 [Compound M1]
  EC50: > 10 µM

## CC(C)NC(=S)Nc1ccc(-c2ncc(-c3ccc(NC(=O)NCc4ccncc4)cc3S(=O)(=O)NC(C)(C)C)s2)cc1 [Compound M2]
  EC50: < 5 µM

## CC(C)NC(=S)Nc1ccc(-c2ncc(-c3ccc(NC(=O)NCc4cccnc4)cc3S(=O)(=O)NC(C)(C)C)s2)cc1 [Compound M3]
  EC50: < 10 µM

## CC(C)NC(=S)Nc1ccc(-c2ncc(-c3ccc(NC(=O)NCc4ccccn4)cc3S(=O)(=O)NC(C)(C)C)s2)cc1 [Compound M4]
  EC50: < 10 µM

## CC(C)NC(=S)Nc1ccc(-c2ncc(-c3ccc(NC(=O)NCc4cncnc4)cc3S(=O)(=O)NC(C)(C)C)s2)cc1 [Compound M5]
  EC50: > 10 µM

## CC(C)NC(=S)Nc1ccc(-c2ncc(-c3ccc(NC(=O)NCc4nccs4)cc3S(=O)(=O)NC(C)(C)C)s2)cc1 [Compound M6]
  EC50: > 10 µM

## CC(C)NC(=S)Nc1ccc(-c2ncc(-c3ccc(NC(=O)NC(C)c4ccccc4)cc3S(=O)(=O)NC(C)(C)C)s2)cc1 (centres unmarked) [Compound M7]
  EC50: < 10 µM

## CC(C)NC(=S)Nc1ccc(-c2ncc(-c3ccc(NC(=O)OC(C)c4ccccc4)cc3S(=O)(=O)NC(C)(C)C)s2)cc1 (centres unmarked) [Compound M8]
  EC50: < 10 µM

## CC(C)NC(=S)Nc1ccc(-c2ncc(-c3ccc(NC(=O)NCc4ccc(O)cc4)cc3S(=O)(=O)NC(C)(C)C)s2)cc1 [Compound N1, N-(tert-butyl)-5-(3-(4-hydroxybenzyl)ureido)-2-(2-(4-(3-isopropylthioureido)phenyl)thiazol-5-yl)benzenesulfonamide]
  EC50: < 10 µM

## CC(C)NC(=S)Nc1ccc(-c2ncc(-c3ccc(NC(=O)NCc4cccc(O)c4)cc3S(=O)(=O)NC(C)(C)C)s2)cc1 [Compound N2]
  EC50: < 10 µM

## CC(C)NC(=S)Nc1ccc(-c2ncc(-c3ccc(NC(=O)NCc4cn[nH]c4)cc3S(=O)(=O)NC(C)(C)C)s2)cc1 [Compound N4]
  EC50: > 10 µM

## CC(C)NC(=S)Nc1ccc(-c2ncc(-c3ccc(NC(=O)NCc4ncc[nH]4)cc3S(=O)(=O)NC(C)(C)C)s2)cc1 [Compound N5]
  EC50: > 10 µM

## CC(C)NC(=S)Nc1ccc(-c2ncc(-c3ccc(NC(=O)NCc4cnc[nH]4)cc3S(=O)(=O)NC(C)(C)C)s2)cc1 [Compound N6]
  EC50: < 10 µM

## CC(C)OC(=O)Nc1ccc(-c2ncc(-c3ccc(CNC(=O)C4CCNCC4)cc3S(=O)(=O)NC(C)(C)C)s2)cc1 [Compound O1]
  EC50: < 10 µM

## COCCC(=O)NCc1ccc(-c2cnc(-c3ccc(NC(=O)OC(C)C)cc3)s2)c(S(=O)(=O)NC(C)(C)C)c1 [Compound O2]
  EC50: > 10 µM

## CC(C)OC(=O)Nc1ccc(-c2ncc(-c3ccc(CNC(=O)CCO)cc3S(=O)(=O)NC(C)(C)C)s2)cc1 [Compound O3]
  EC50: > 10 µM

## CC(C)OC(=O)Nc1ccc(-c2ncc(-c3ccc(CNC(=O)Cc4ccccc4)cc3S(=O)(=O)NC(C)(C)C)s2)cc1 [Compound O4]
  EC50: < 10 µM

## CC(C)OC(=O)Nc1ccc(-c2ncc(-c3ccc(CNC(=O)Cc4ccncc4)cc3S(=O)(=O)NC(C)(C)C)s2)cc1 [Compound O5]
  EC50: < 5 µM

## CC(C)OC(=O)Nc1ccc(-c2ncc(-c3ccc(CNC(=O)Cc4cccnc4)cc3S(=O)(=O)NC(C)(C)C)s2)cc1 [Compound O6]
  EC50: > 10 µM

## CC(C)OC(=O)Nc1ccc(-c2ncc(-c3ccc(CNC(=O)c4ccncc4)cc3S(=O)(=O)NC(C)(C)C)s2)cc1 [Compound O7]
  EC50: < 5 µM

## CC(C)OC(=O)Nc1ccc(-c2ncc(-c3ccc(CNC(=O)c4cncnc4)cc3S(=O)(=O)NC(C)(C)C)s2)cc1 [Compound O8]
  EC50: < 10 µM

## CCC(=O)NCc1ccc(-c2cnc(-c3ccc(NC(=O)OC(C)C)cc3)s2)c(S(=O)(=O)NC(C)(C)C)c1 [Compound P1]
  EC50: < 10 µM

## CC(C)OC(=O)Nc1ccc(-c2ncc(-c3ccc(CNC(=O)C(C)C)cc3S(=O)(=O)NC(C)(C)C)s2)cc1 [Compound P2]
  EC50: < 5 µM

## CC(C)OC(=O)Nc1ccc(-c2ncc(-c3ccc(CNC(=O)C(C)(C)C)cc3S(=O)(=O)NC(C)(C)C)s2)cc1 [Compound P3]
  EC50: > 10 µM

## CC(C)OC(=O)Nc1ccc(-c2ncc(-c3ccc(CNC(=O)c4ccccc4)cc3S(=O)(=O)NC(C)(C)C)s2)cc1 [Compound P4]
  EC50: > 10 µM

## CC(C)OC(=O)Nc1ccc(-c2ncc(-c3ccc(CNS(C)(=O)=O)cc3S(=O)(=O)NC(C)(C)C)s2)cc1 [Compound P5]
  EC50: < 10 µM

## CC(C)OC(=O)Nc1ccc(-c2ncc(-c3ccc(CNS(=O)(=O)c4ccccc4)cc3S(=O)(=O)NC(C)(C)C)s2)cc1 [Compound P6]
  EC50: < 10 µM

## COC(=O)NCc1ccc(-c2cnc(-c3ccc(NC(=O)OC(C)C)cc3)s2)c(S(=O)(=O)NC(C)(C)C)c1 [Compound P7]
  EC50: < 10 µM

## CCOC(=O)NCc1ccc(-c2cnc(-c3ccc(NC(=O)OC(C)C)cc3)s2)c(S(=O)(=O)NC(C)(C)C)c1 [Compound P8]
  EC50: < 10 µM

## CC(C)OC(=O)NCc1ccc(-c2cnc(-c3ccc(NC(=O)OC(C)C)cc3)s2)c(S(=O)(=O)NC(C)(C)C)c1 [Compound P9]
  EC50: > 10 µM

## CC(=O)NCc1ccc(-c2cnc(-c3ccc(NC(=O)OC(C)C)cc3)s2)c(S(=O)(=O)NC(C)(C)C)c1 [Compound Q1, isopropyl N-[4-[5-[4-(acetamidomethyl)-2-(tert-butylsulfamoyl)phenyl]thiazol-2-yl]phenyl]carbamate]
  EC50: < 10 µM

## CC(C)OC(=O)Nc1ccc(-c2ncc(-c3ccc(CNC(=O)OCc4ccccc4)cc3S(=O)(=O)NC(C)(C)C)s2)cc1 [Compound Q2, isopropyl N-[4-[5-[4-(benzyloxycarbonylaminomethyl)-2-(tert-butylsulfamoyl)phenyl]thiazol-2-yl]phenyl]carbamate]
  EC50: > 10 µM

## CC(C)NC(=S)Nc1ccc(-c2ncc(-c3ccc(N(C)C(=O)NCc4ccccc4)cc3S(=O)(=O)NC(C)(C)C)s2)cc1 [Compound Q3]
  EC50: < 1 µM

## CC(C)NC(=S)Nc1ccc(-c2ncc(-c3ccc(N(C)C(=O)N(C)Cc4ccccc4)cc3S(=O)(=O)NC(C)(C)C)s2)cc1 [Compound Q4]
  EC50: < 1 µM

## Cc1cc(NC(=O)OC(C)C)ccc1-c1ncc(-c2ccc(NC(=O)OC(C)C)cc2S(=O)(=O)NC(C)(C)C)s1 [Compound R1]
  EC50: < 1 µM

## COc1cc(-c2ncc(-c3ccc(NC(=O)OC(C)C)cc3S(=O)(=O)NC(C)(C)C)s2)ccc1NC(=O)OC(C)C [Compound R3]
  EC50: < 5 µM

## COc1cc(-c2ncc(-c3ccc(NC(=O)OCc4ccccc4)cc3S(=O)(=O)NC(C)(C)C)s2)ccc1NC(=O)OC(C)C [Compound R7]
  EC50: < 1 µM
